From PMC9936496, “Azobenzene-Based Amino Acids for the Photocontrol of Coiled-Coil Peptides” (Bioconjugate Chemistry, 2023)
pKd: −log10 of the molar value. Like-named read-outs stand apart in the source and are kept apart here. Blank lines part the entries; values can stand above or below the compound they belong to. Starred links: 1 amine or outer side, 2 acyl side, 3 side chain; linkers in the order of their positions; H or OH if unused. Non-standard residues stand in square brackets, D forms with d. Residues, ends and D or L forms follow the SMILES beside them. X1 = O=C([C@@H](N[*:1])c1ccc(N=Nc2ccccc2)cc1)[*:2]

Experiments:
[1] = Thermal relaxation of Fmoc-APgly from cis to trans followed by HPLC; type: physicochemical; details: after irradiation with 340 nm light, in MeCN at 20 °C
Description: (§1) Figure 3 HPLC analysis of the photoswitching behavior of Fmoc-APgly, and the effect of azobenzene isomerization in peptide K3-APgly. (A) Chromatography traces of Fmoc-APgly in the dark state and after irradiation with different wavelengths of light, complete traces can be found in Figure S5. (B) Thermal relaxation of Fmoc-APgly from cis to trans as followed by HPLC. (C) Percentage of the trans and cis isomers in solution at the different PSSs; error bars indicate difference in deviation between repeat samples. (D) UV–vis spectra showing the spectra of K3-APgly in the dark and after irradiation with 340 or 435 nm light. (E) CD spectra showing the effect of photoisomerization on the structure of K3-Apgly by itself and as a coiled-coil with E3GY. […] Illumination and relaxation studies of the amino acid were performed in MeCN at 20 °C. Peptide spectra were recorded at 20 °C in PBS with [peptide] = 50 μM. […]
(§2) Analytical HPLC was performed using a Shimadzu Prominence-i LC-2030C 3D system fitted with a 4.6 × 50 mm Phenomenex Kinetex Evo C18 column. The isomeric ratio of 10 was quantified using a linear gradient of 10–90% MeCN in water containing 0.1% TFA as buffer. For each measurement, 2 μL of a 200 mM solution of 10 was injected, and measurements were repeated three times for accuracy.

[2] = HPLC quantification of trans/cis isomer ratio at photostationary states; type: physicochemical; details: measurements repeated three times
Method: As azobenzene photoswitches based on phenylglycine are not known in the literature, the photoswitching behavior of Fmoc-APgly (10) was analyzed first in order to assess its suitability as a photoswitch (Figure 3A–C). […] The largest ratio of […]-to-cis isomers via photoisomerization was achieved through irradiation with 385 nm light (83.2 ± 0.2% […]), with higher wavelengths showing very similar distributions.
as §1, §2

[3] = set-up: method as in 2 sources, ref 29 = [29]; PMID 16287231; doi:10.1021/bc049724g; Nakayama K.; Endo M.; Majima T. A Hydrophilic Azobenzene-Bearing Amino Acid for Photochemical Control of a Restriction Enzyme BamHI . Bioconjugate Chem. 2005 , 16 , 1360 – 1366 . 10.1021/bc049724g . ||| ref 33 = [33]; PMID 31495713; doi:10.1016/j.chembiol.2019.08.006; Kneuttinger A. C.; Straub K.; Bittner P.; Simeth N. A.; Bruckmann A.; Busch F.; Rajendran C.; Hupfeld E.; Wysocki V. H.; Horinek D.; et al. Light Regulation of Enzyme Allostery through Photo; details: cited from earlier work
[4] = cited from earlier work
E3GY = test: CD thermal unfolding curves fitted to a dimeric coiled-coil binding model; details: coiled coil with E3GY; for Kf (folding constant) / pKd: binding model at 20 °C; for pKd: read-out: Ku (unfolding constant)
Method: CD melting curves measured at different concentrations were fitted to a coiled-coil binding model (Figures S2 and S3).[39]
CD spectra were recorded on a Jasco J-815 CD spectrometer fitted with a Peltier temperature controller. Spectra were recorded in a 2 mm quartz cuvette at 20 °C using either PBS or low-salt buffer (2 mM NaCl, 10 mM phosphate) at pH 7.4. Spectra were recorded between 190 and 280 nm with 1 nm intervals at a scan rate of 100 nm/min with five subsequent spectra averaged to minimize noise. […] Thermal melting curves were generated by recording θ222nm between 5 and 90 °C at a speed of 1 °C/min. If irradiated samples were used, samples were reilluminated every 30 min. Melting curves were measured at four different concentrations and fitted using the Fitdis software package.[39]

[5] = type: physicochemical; details: K3-APgly in PBS versus 10 in MeCN
Method: For the potential application of K3-APgly in an active system, for example, for membrane fusion, the stability of the photoswitch to repeated light exposures (photocycling) is required. […] Finally, the peptide was irradiated with the 340 nm PSS and allowed to thermally relax, showing 65% recovery in 69 h.
Figure 4 Photocycling of K3-APgly between the dark-adapted, 340 and 435 nm PSS (left), thermal relaxation of the peptide after […] (middle) and distribution of the absorbance in the different states during cycling (right).

[6] = 340 nm irradiated state (predominantly cis)
[7] = dark state (predominantly trans)

- half-life of thermal relaxation cis to trans [1]: 28.17 h
- half-life of thermal relaxation cis to trans ([1]; same value in hours): ≈ 28 h
- trans isomer ([2]; dissolved in MeCN, kept under dark conditions): 94.2 ± 0.2%
- cis isomer ([2]; irradiated with 340 nm light, MeCN, 20 °C): 91.3 ± 0.6%
- trans isomer ([2]; irradiation with 385 nm light, MeCN, 20 °C): 83.2 ± 0.2%
SMILES: O=C(N[C@H](C(=O)O)c1ccc(N=Nc2ccccc2)cc1)OCC1c2ccccc2-c2ccccc21 [compound 10, N-Fmoc-4-(phenylazo)-L-phenylglycine]

SMILES: N[C@@H](Cc1ccc(N=Nc2ccc(C(=O)O)cc2)cc1)C(=O)O [APhe2]
- PSS, cis isomer ([3]; using a mercury lamp): 81%
- reported half-life of thermal relaxation [4]: 35 h

SMILES: CC[C@H](C)[C@H](NC(=O)[C@H](CCCCN)NC(C)=O)C(=O)N[C@@H](C)C(=O)N[C@@H](C)C(=O)N[C@@H](CC(C)C)C(=O)N[C@@H](CCCCN)C(=O)N[C@@H](CCC(=O)O)C(=O)N[C@@H](CCCCN)C(=O)N[C@H](C(=O)N[C@@H](C)C(=O)N[C@@H](C)C(=O)N[C@@H](CC(C)C)C(=O)N[C@@H](CCCCN)C(=O)N[C@@H](CCC(=O)O)C(=O)N[C@@H](CCCCN)C(=O)N[C@H](C(=O)N[C@@H](C)C(=O)N[C@@H](C)C(=O)N[C@@H](CC(C)C)C(=O)N[C@@H](CCCCN)C(=O)N[C@@H](CCC(=O)O)C(N)=O)[C@@H](C)CC)c1ccc(N=Nc2ccccc2)cc1 [K3-APgly] (Ac-KIAALKEK[X1]AALKEKIAALKE-NH2)
- Kf (folding constant) (E3GY; [6]): 2.97 × 10^5 M^–1
- pKd (E3GY; [6]): 5.47
- Kf (folding constant) (E3GY; [7]): 1.38 × 10^6 M^–1
- pKd (E3GY; [7]): 6.14
- dark/340 nm PSS (fold difference in folding constant / binding affinity) (E3GY; ratio dark state to 340 nm PSS, 20 °C): 4.65
- thermal relaxation, times slower than that observed for 10 in MeCN [5]: 1.6

SMILES: N[C@@H](Cc1ccc(N=Nc2ccccc2)cc1)C(=O)O [APhe1, Phenylazo-phenylalanine]
- PSS, cis isomer ([3]; using a LED light source): 89%
- PSS, cis isomer ([3]; using a mercury lamp): 79%
- reported half-life of thermal relaxation [4]: 26.67 h
